{
  "source": "patent US10093642B2",
  "about": "“Multitarget hedgehog pathway inhibitors and uses thereof” (UNIVERSITA' DEGLI STUDI DI SIENA, priority 2013, dated 2018)",
  "key": {"[1]": {"test_system": "Wnt/Bcatenin", "test": "Selectivity: unrelated signal transduction pathway Wnt/Bcatenin", "format": "cell-based"}, "[2]": {"test_system": "Hh signaling in mouse cerebellar progenitors", "test": "Hh target mRNA in cerebellar progenitors of 6-day old mice after s.c. injection", "format": "in vivo, CD1 mice", "settings": "100 μmol/Kg s.c. for 2 days", "excerpt": "To assess the in vivo activity of Glabrescione B, we first tested its ability to suppress Hh signaling in 6-day old mouse cerebellar progenitors, considered the cell of origin of MB. 6-day old CD1 mice were randomly divided into two groups (n=6) and injected s.c. with solvent only (2-hydroxypropyl-β-cyclodextrin:ethanol, 3:1) or Glabrescione B in solvent (100 μmol/Kg) for 2 days (2-hydroxypropyl-β-cyclodextrin was purchased from Sigma Aldrich, St. Louis, Mo., USA). Cerebella were collected and mRNA levels were determined by qRT-PCR."}, "[3]": {"molecular_target": "T1, Gli1 (Homo sapiens, UniProt P08151)", "T1 construct": "expressed in transfected cells; host or cells: HEK293", "T1 sequence (P08151 1-1106)": "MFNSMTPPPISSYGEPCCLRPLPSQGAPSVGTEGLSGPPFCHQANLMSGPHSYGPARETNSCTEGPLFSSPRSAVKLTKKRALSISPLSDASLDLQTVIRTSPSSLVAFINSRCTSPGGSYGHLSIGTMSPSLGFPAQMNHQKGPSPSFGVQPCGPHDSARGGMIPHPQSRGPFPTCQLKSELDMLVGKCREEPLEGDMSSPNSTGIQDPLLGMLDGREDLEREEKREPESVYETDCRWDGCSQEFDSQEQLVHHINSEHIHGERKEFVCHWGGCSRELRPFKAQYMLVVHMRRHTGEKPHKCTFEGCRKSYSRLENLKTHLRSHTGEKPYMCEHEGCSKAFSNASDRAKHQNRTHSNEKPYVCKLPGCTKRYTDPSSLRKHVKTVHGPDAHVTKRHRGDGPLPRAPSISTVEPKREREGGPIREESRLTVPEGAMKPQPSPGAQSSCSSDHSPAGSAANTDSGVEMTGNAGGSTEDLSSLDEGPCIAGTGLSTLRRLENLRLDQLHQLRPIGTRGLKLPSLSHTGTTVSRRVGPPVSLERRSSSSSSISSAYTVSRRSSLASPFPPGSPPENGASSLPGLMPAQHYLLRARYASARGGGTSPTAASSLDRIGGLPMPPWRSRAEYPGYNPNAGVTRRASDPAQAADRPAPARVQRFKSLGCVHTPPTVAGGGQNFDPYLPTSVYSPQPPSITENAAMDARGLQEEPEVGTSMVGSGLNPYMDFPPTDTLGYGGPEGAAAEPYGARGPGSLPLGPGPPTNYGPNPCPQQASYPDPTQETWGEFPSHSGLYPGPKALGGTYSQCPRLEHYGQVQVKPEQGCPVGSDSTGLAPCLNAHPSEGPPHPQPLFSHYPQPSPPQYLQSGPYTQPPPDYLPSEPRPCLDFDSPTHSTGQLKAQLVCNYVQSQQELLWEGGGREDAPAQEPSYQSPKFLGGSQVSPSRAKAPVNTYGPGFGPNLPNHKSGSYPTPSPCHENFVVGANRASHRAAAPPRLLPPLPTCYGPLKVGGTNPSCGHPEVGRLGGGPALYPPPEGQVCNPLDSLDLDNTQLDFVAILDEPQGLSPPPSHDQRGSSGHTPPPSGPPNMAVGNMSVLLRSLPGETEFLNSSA", "test": "Gli1-mediated transcription luciferase assay in HEK293 cells transiently expressing Gli1", "format": "cell-based", "settings": "24 h", "description": "FIG. 7. Inhibition of Gli1-induced transcription in transfected HEK293 cells. HEK293 cells were transfected with 12×GliBS-Luc and pRL-TK Renilla (normalization control) plus control (empty vector) or Gli1 vector and treated with Glabrescione B or GANT61 (20 μM) or vehicle only (DMSO, dimethyl sulfoxide 0.5%—Gli1 bar in the graph) for 24 h and luciferase activity tested. Shown is the mean of three independent experiments. Error bars indicate SD.\nEfficacy of Glabrescione B to directly target Gli1 protein, the final effector of Hh pathway, was also tested. […] GANT61, the only small-molecule described to inhibit Gli1 function (Lauth et al., PNAS 104: 8455-8460), was included as positive control.\nTo investigate the ability of Glabrescione B to block downstream Hh signaling by targeting Gli1 protein functions, the inventors performed a luciferase assay in HEK293 cells transiently expressing Gli1. The cells were seeded in 24-multiwell plates and the day after transfected with Gli1 expression vector together with the reporter plasmids 12×GliBS-Luc and pRL-TK Renilla reniformis (Kogerman P et al, 1999; Everett L et al, 1999). […] After 24 h of treatment cells were lysed and analyzed by using the Dual Luciferase kit according to manufacturer's instructions (Dual-Luciferase® Reporter assay system; Promega, cat. # E1980). […]"}},
  "note": "pIC50: −log10 of the molar value.",
  "data": [
    {"smiles": "COc1cc(OC)c2c(=O)c(-c3ccc(OCC=C(C)C)c(OCC=C(C)C)c3)coc2c1", "note": "[Glabrescione B, 3-(3′,4′-bis(3-methylbut-2-enyloxy)phenyl)-5,7-dimethoxy-4H-chromen-4-one]", "values": [
      {"measurement": "inhibition at 30 µM", "setting": "[1]", "result": 0, "unit": "%"},
      {"measurement": "cerebellar levels of Hh target genes (mRNA)", "setting": "[2]", "result": "reduced significantly"},
      {"measurement": "pIC50", "setting": "[3]; 12×GliBS-Luc reporter", "result": "~4.82"},
      {"measurement": "Gli1-induced transcription", "setting": "[3]; GANT61 20 μM as positive control", "result": "capable of interfering with Gli1-induced transcription in a dose-dependent manner"}
    ]}
  ]
}
